Several values for one entry are separate records, joined by “and”; a condition that tells them apart may be missing. Equal entries are not always repeated.
How the values were obtained:
[1] = pKa measurement of unformulated amine lipid (fluorescence, method of Jayaraman et al.); assay type: physicochemical; settings: 100 μM in 0.1 M phosphate buffer, pH 2.0-12.0
Procedure: The pKa of each amine lipid was determined according to the method in Jayaraman, et al. (Angewandte Chemie, 2012) with the following adaptations. […] Lipid was diluted to 100 μM in 0.1 M phosphate buffer (Boston Bioproducts) where the pH ranged from 2.0-12.0. Fluorescence intensity was measured using excitation and emission wavelengths of 321 nm and 448 nm.

[2] = RNA encapsulation efficiency of LNPs (Ribogreen fluorescence assay); assay type: physicochemical; settings: LNP, sg:mRNA 1:1, N/P about 6, amine lipid/DSPC/cholesterol/PEG-2k-DMG 50/9/38/3; Table 2, Experiments 2-20
Method in brief: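 LNPs were diluted in 1× TE with 0.2% Triton X-100 (total RNA) or without it (free RNA), stained with RiboGreen for ~10 min at room temperature in the dark, and read at Ex 488/Em 525 nm against standard curves of the starting RNA. Encapsulation efficiency = (Total − Free)/Total.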

[3] = Dynamic light scattering of LNPs: Z-average diameter, number average diameter, PDI; assay type: physicochemical; settings: LNP, sg:mRNA 1:1, N/P about 6, 50/9/38/3; Table 2, Experiments 2-20
Method in brief: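 LNP samples were diluted in PBS and measured by DLS to give intensity-based Z-average diameter, number average diameter and polydispersity index. PDI describes size spread around the mean, with zero meaning a uniform population.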

Transthyretin (TTR) = assay: Serum TTR ELISA in mice after LNP dosing; assay type: in vivo, CD-1 female mice; settings: guide G282 experiments; for Serum TTR % TSS: mouse serum TTR relative to TSS control; for Serum TTR: mouse serum, ELISA
Method in brief: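 Female CD-1 mice, 6–10 weeks, given LNPs by tail-vein injection (~10 mL/kg), 0.1 mg/kg unless noted; serum taken at day 6 or 7 by cardiac puncture. Total mouse TTR by ELISA on sera diluted 10,000-fold (0.1 mg/kg) or 10,000- and 2,500-fold (0.3 mg/kg).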

pKa [1]	Encapsulation (%) [2]	Number mean (nm) [3]	PDI [3]	Z-avg (nm) [3]	Compound	Serum TTR % TSS (Transthyretin (TTR)) [%]	Serum TTR (Transthyretin (TTR)) [µg/mL]
7.3	98%	72.23 nm	0.018	86.15 nm	CCCCC/C=C\C/C=C\CCCCCCCC(=O)OCC(COC(=O)CCC(OCCCCCCCC)OCCCCCCCC)COC(=O)OCC1CCN(CC)C1 (stereo not shown) [Compound 51, 3-((4,4-bis(octyloxy)butanoyl)oxy)-2-(((((1-ethylpyrrolidin-3-yl)methoxy)carbonyl)oxy)methyl)propyl (9Z,12Z)-octadeca-9,12-dienoate]	76	843
7.8	99%	69.4 nm	0.032	86.72 nm	CCCCC/C=C\C/C=C\CCCCCCCC(=O)OCC(COC(=O)CCC(OCCCCCCCC)OCCCCCCCC)COC(=O)OCC1(C)CCCN(CC)C1 (stereo not shown) [Compound 52, 3-((4,4-bis(octyloxy)butanoyl)oxy)-2-(((((1-ethyl-3-methylpiperidin-3-yl)methoxy)carbonyl)oxy)methyl)propyl (9Z,12Z)-octadeca-9,12-dienoate]	84	935
6.84	96% and 92%	79.46 nm and 90.16 nm	0.048 and 0.039	101 nm and 113.2 nm	CCCCCC/C=C\COC(=O)CCCCCC(=O)OCC(COC(=O)CCC(OCCCCCCCC)OCCCCCCCC)COC(=O)OCCCN(CC)CC (stereo not shown) [Compound 55, (Z)-1-(3-((4,4-bis(octyloxy)butanoyl)oxy)-2-((((3-(diethylamino)propoxy)carbonyl)oxy)methyl)propyl) 7-(non-2-en-1-yl) heptanedioate]	51	442
6.85	96%	81.44 nm	0.067	105.2 nm	CCCCCC/C=C\COC(=O)CCCC(=O)OCC(COC(=O)CCC(OCCCCCCCC)OCCCCCCCC)COC(=O)OCCCN(CC)CC (stereo not shown) [Compound 56, (Z)-3-((4,4-bis(octyloxy)butanoyl)oxy)-2-((((3-(diethylamino)propoxy)carbonyl)oxy)methyl)propyl non-2-en-1-yl glutarate]	66	576
6.44	99%	76.95 nm	0.035	95.57 nm	CCCCCCCCCCOC(=O)CCCCCCCC(=O)OCC(COC(=O)CCC(OCCCCCCCC)OCCCCCCCC)COC(=O)OCC1CCCN(C)C1 (stereo not shown) [Compound 71, 1-(3-((4,4-bis(octyloxy)butanoyl)oxy)-2-(((((1-methylpiperidin-3-yl)methoxy)carbonyl)oxy)methyl)propyl) 9-decyl nonanedioate]	50	462
6.07	99%	75.22 nm	0.002	91.65 nm	CCCCCCCCCCOC(=O)CCCCCCCC(=O)OCC(COC(=O)CCC(OCCCCCCCC)OCCCCCCCC)COC(=O)OCC1CCCN(CC)C1 (stereo not shown) [Compound 72, 1-(3-((4,4-bis(octyloxy)butanoyl)oxy)-2-(((((1-ethylpiperidin-3-yl)methoxy)carbonyl)oxy)methyl)propyl) 9-decyl nonanedioate]	52	479
6.64	97%	94.5 nm	0.008	110.6 nm	CCCCCCCCCCOC(=O)CCCCCCCC(=O)OCC(COC(=O)CCC(OCCCCCCCC)OCCCCCCCC)COC(=O)NCCN(CC)CC (stereo not shown) [Compound 73, 1-(3-((4,4-bis(octyloxy)butanoyl)oxy)-2-((((2-(diethylamino)ethyl)carbamoyl)oxy)methyl)propyl) 9-decyl nonanedioate]	60	550
6.39	99%	87.14 nm	0.021	105.7 nm	CCCCCCCCCCOC(=O)CCCCCCCC(=O)OCC(COC(=O)CCC(OCCCCCCCC)OCCCCCCCC)COC(=O)OCCC1CCCN1C (stereo not shown) [Compound 74, 1-(3-((4,4-bis(octyloxy)butanoyl)oxy)-2-((((2-(1-methylpyrrolidin-2-yl)ethoxy)carbonyl)oxy)methyl)propyl) 9-decyl nonanedioate]	44	406
6.45	98%	92.74 nm	0.020	110.9 nm	CCCCCCCCCCOC(=O)CCCCCCCC(=O)OCC(COC(=O)CCCN(CC)CC)COC(=O)CCC(OCCCCCCCC)OCCCCCCCC (stereo not shown) [Compound 75, 1-(3-((4,4-bis(octyloxy)butanoyl)oxy)-2-(((4-(diethylamino)butanoyl)oxy)methyl)propyl) 9-decyl nonanedioate]	68	623
6.17	99%	80.2 nm	0.097	111.8 nm	CCCCCCCCCCOC(=O)CCCCCCCC(=O)OCC(COC(=O)CCCCCC(=O)OC(CCCCCCCC)CCCCCCCC)COC(=O)OCCCN(CC)CC (stereo not shown) [Compound 76, 1-decyl 9-(3-(((3-(diethylamino)propoxy)carbonyl)oxy)-2-(((7-(heptadecan-9-yloxy)-7-oxoheptanoyl)oxy)methyl)propyl) nonanedioate]	81	735
6.16	99%	85.4 nm	0.006	101.8 nm	CCCCCCCCCCOC(=O)CCCCCCCC(=O)OCC(COC(=O)CCCC(=O)OC(CCCCCCCC)CCCCCCCC)COC(=O)OCCCN(CC)CC (stereo not shown) [Compound 77, 1-decyl 9-(3-(((3-(diethylamino)propoxy)carbonyl)oxy)-2-(((5-(heptadecan-9-yloxy)-5-oxopentanoyl)oxy)methyl)propyl) nonanedioate]	53	478
6.13	99%	83.64 nm	0.019	99.24 nm	CCCCCCCCCCOC(=O)CCCCCCCC(=O)OCC(COC(=O)CCC(OCCCCCCCCC)OCCCCCCCCC)COC(=O)OCCCN(CC)CC (stereo not shown) [Compound 79, 1-(3-((4,4-bis(nonyloxy)butanoyl)oxy)-2-((((3-(diethylamino)propoxy)carbonyl)oxy)methyl)propyl) 9-decyl nonanedioate]	39	351
6.21	98%	87.3 nm	0.016	105.8 nm	CCCCCCCCCCOC(=O)CCCCCCCC(=O)OCC(COC(=O)CCCCCC(=O)OC(CCCCCCCC)CCCCCCCC)COC(=O)OCCC1CCCN1C (stereo not shown) [Compound 80, 1-decyl 9-(3-((7-(heptadecan-9-yloxy)-7-oxoheptanoyl)oxy)-2-((((2-(1-methylpyrrolidin-2-yl)ethoxy)carbonyl)oxy)methyl)propyl) nonanedioate]	116	873
6.31	98%	94.01 nm	0.038	117.5 nm	CCCCCCCCCCOC(=O)CCCCCCCC(=O)OCC(COC(=O)CCCCCC(=O)OC(CCCCCCCC)CCCCCCCC)COC(=O)CCCN(C)C (stereo not shown) [Compound 82, 1-decyl 9-(3-((4-(dimethylamino)butanoyl)oxy)-2-(((7-(heptadecan-9-yloxy)-7-oxoheptanoyl)oxy)methyl)propyl) nonanedioate]	126	953
6.16	99%	74.41 nm	0.009	89.55 nm	CCCCCC/C=C\COC(=O)CCCCCCCC(=O)OCC(COC(=O)CCC(OCCCCCCCCC)OCCCCCCCCC)COC(=O)OCCCN(CC)CC (stereo not shown) [Compound 83, (Z)-1-(3-((4,4-bis(nonyloxy)butanoyl)oxy)-2-((((3-(diethylamino)propoxy)carbonyl)oxy)methyl)propyl) 9-(non-2-en-1-yl) nonanedioate]	54	488
6.16	95%	86.08 nm	0.086	114.2 nm	CCCCCC/C=C\COC(=O)CCCCCCCC(=O)OCC(COC(=O)CCC(OCCCCCCC)OCCCCCCC)COC(=O)OCCCN(CC)CC (stereo not shown) [Compound 84, (Z)-1-(3-((4,4-bis(heptyloxy)butanoyl)oxy)-2-((((3-(diethylamino)propoxy)carbonyl)oxy)methyl)propyl) 9-(non-2-en-1-yl) nonanedioate]	71	648
